Measured values taken from article PMC11270681, “Synthesis and Systematic Investigation of Lepidiline A and Its Gold(I), Silver(I), and Copper(I) Complexes Using In Vitro Cancer Models and Multipotent Stem Cells” (ACS Omega, 2024).
Several values for one entry are separate records, joined by “and”; a condition that tells them apart may be missing. Equal entries are not always repeated. Each block holds one compound with its values, some of them ahead of it.

How the values were obtained:
[1] = test system: Bone marrow MSCs (BM-MSC); assay: Cytotoxicity, range over bone marrow MSCs; format: cell-based; details: BM-MSC and immortalized BM-MSC
Method: (§1) OVCAR-3 (OVC-3) and OVCAR-8 (OVC-8) ovarian serous adenocarcinomas, IGROV-1 ovarian endometrioid adenocarcinoma, OVCAR-5 (OVC-5) upper gastrointestinal carcinoma, MDA-MB-231 breast adenocarcinoma, and MCF-7 and T-47D invasive breast carcinomas were purchased from the Developmental Therapeutic Program of the National Cancer Institute (NIH, USA) and were cultured in an RPMI medium (Thermo Fisher). Mes-Sa and Mes-Sa/Dx5 uterine sarcoma cell lines were purchased from American Type Culture Collection (ATCC) and were kept in DMEM (Thermo Fisher). Mes-Sa B1 was transfected with the human MDR1 gene, and Mes-Sa mCherry, Mes-Sa B1 mOrange, and Mes-Sa/Dx5 eGFP were engineered to stably express the respective fluorescent proteins previously.[51] Culture media for cancer cells were supplemented with 10% fetal bovine serum, 2 mM L-glutamine, and 100 units/mL penicillin and 100 μg/mL streptomycin (Thermo Fisher). The adipose tissue and bone marrow-derived mesenchymal stem cells (AD-MSC and BM-MSC) were described previously[37] and were kept in DMEM-F12 (Gibco) supplemented with 10% fetal bovine serum, L-glutamine (Thermo Fisher), 0.1% gentamicin (Gibco, 50 mg/mL), and 16 ng/mL fibroblast growth factor 2 (Peprotech). Cells were kept at 37 °C under 5% CO2 and were negative for mycoplasma infection.
(§2) Cytotoxicities of the nonfluorescent cancer cells were assessed with a PrestoBlue cell viability reagent (Thermo Fisher). Briefly, 2500 cells/well were seeded on 384-well plates; then, the next-day drugs were added. After 72 h of incubation, PrestoBlue was added in a 10% final concentration, and after an hour of additional incubation, plates were measured with a PerkinElmer EnSpire plate reader at 555 nm/585 nm excitation/emission wavelengths. Stem cells were seeded on 96-well plates at a density of 5000 cells/well, and the following day, drugs were added for 96 h of incubation; then, viability was assessed with 10% PrestoBlue diluted in PBS. Fluorescent cancer cells were admixed before seeding on 384-well plates at an 800 cells/well density each, thus altogether 2400 cells/well. Drugs were added the following day, and the intensity of the fluorescent proteins was measured after 144 h of incubation at the respective fluorescent channels (excitation/emission, eGFP: 485 nm/510 nm; mCherry: 585 nm/610 nm; mOrange: 545 nm/567 nm). pIC50 values were calculated by a custom program written by Judit Sessler in C#. IC50 values and standard deviation were calculated from average pIC50 values from at least 3 independent measurements.

AD-MSC = assay: Cytotoxicity (PrestoBlue), adipose-derived mesenchymal stem cells; format: cell-based; details: 96 h incubation
Method: as §1, §2

IGROV-1 = assay: Cytotoxicity (PrestoBlue), ovarian cancer line; format: cell-based; details: IGROV-1, 72 h incubation
Method: as §1, §2

OVC-8 = assay: Cytotoxicity (PrestoBlue), ovarian cancer line; format: cell-based; details: OVC-8, 72 h incubation
Method: as §1, §2

OVC-3 = assay: Cytotoxicity (PrestoBlue), ovarian cancer line; format: cell-based; details: OVC-3, 72 h incubation
Method: as §1, §2

Mes-Sa [2] = assay: H2DCFDA intracellular ROS production assay; format: cell-based; details: 50 μM, 4 h incubation
Method: (§3) To assess intracellular ROS production, we used a H2DCFDA cellular ROS assay kit (ab113851, Abcam) according to the manufacturer’s instructions. Briefly, 20,000 cells were seeded on 96-well plates. On the following day, cells were washed, and H2DCFDA solution, prepared by avoiding direct light, was added for 45 min. Next, cells were washed, and 50 μM samples of test compounds were aspirated on the cells in a complete and phenol red-free medium (FluoroBrite, Thermo Fisher). At each hour, fluorescence of 2′,7′-dichlorofluorescein (DCF) was measured at 484 nm/535 nm excitation/emission wavelengths. Values were normalized to 0 h measurements. Values indicate at least 3 independent measurements.

MCF-7 [3] = assay: H2DCFDA intracellular ROS production assay; format: cell-based; details: MCF-7, 50 μM, 4 h incubation
Method: as §3

T-47D [4] = assay: H2DCFDA intracellular ROS production assay; format: cell-based; details: 50 μM, 4 h incubation
Method: as §3

im. BM-MSC = assay: Cytotoxicity (PrestoBlue), immortalized bone marrow MSC; format: cell-based; details: 96 h incubation
Method: as §1, §2

[5] = test system: 3 breast cancer cell lines (MDA-MB-231, MCF-7 and T-47D); assay: Cytotoxicity, range over 3 breast cancer cell lines; format: cell-based; details: MDA-MB-231, MCF-7, T-47D
Method: as §1, §2

Mes-Sa [6] = assay: Cytotoxicity, uterine sarcoma parental line; format: cell-based; details: fluorescent protein intensity after 144 h
Method: as §1, §2

MCF-7 [7] = assay: Cytotoxicity (PrestoBlue), breast cancer line; format: cell-based; details: MCF-7, 72 h incubation
Method: as §1, §2

T-47D [8] = assay: Cytotoxicity (PrestoBlue), breast cancer line; format: cell-based; details: 72 h incubation
Method: as §1, §2

MDA-MB-231 = assay: Cytotoxicity (PrestoBlue), breast cancer line; format: cell-based; details: MDA-MB-231, 72 h incubation
Method: as §1, §2

Mes-Sa B1 = assay: Cytotoxicity, MDR1-transfected uterine sarcoma line; format: cell-based; details: Mes-Sa B1 (MDR1 transfected, ABCB1 expressing), fluorescent protein intensity after 144 h
Method: as §1, §2

OVC-5 = assay: Cytotoxicity (PrestoBlue), upper gastrointestinal cancer line; format: cell-based; details: for IC50: OVC-5, 72 h incubation, PrestoBlue
Method: as §1, §2

Mes-Sa/Dx5 = assay: Cytotoxicity, doxorubicin-selected MDR uterine sarcoma line; format: cell-based; details: Mes-Sa/Dx5 (doxorubicin selected, ABCB1 expressing), fluorescent protein intensity after 144 h
Method: as §1, §2

[9] = Stability in serum-free culture medium by HPLC-UV; format: physicochemical; details: for AUC (HPLC-UV), single measurements 1-5 / AUC (HPLC-UV), average: serum-free culture medium
Method: Stability of the metal complexes in solution was measured in serum-free culture medium. The compounds were dissolved in DMSO right before the experiment. Solutions of Cu-LA and Ag-LA contained 1% final volume of DMSO, while Au-LA contained 30% DMSO. Samples were taken right after dilution, and after 1 h, 2 h, 4 h, 8 h, 16 h, 32 and 48 h, and measured by HPLC-UV.

BM-MSC = assay: Cytotoxicity (PrestoBlue), bone marrow-derived mesenchymal stem cells; format: cell-based; details: 96 h incubation
Method: as §1, §2

[10] = test system: 3 ovarium cancer lines (IGROV-1, OVC-3, and OVC-8); assay: Cytotoxicity, range over 3 ovarium cancer lines; format: cell-based; details: IGROV-1, OVC-3, OVC-8
Method: as §1, §2

cancer lines = assay: Cytotoxicity, range over cancer lines; format: cell-based; details: all cancer lines tested; read-out: IC50 range over cancer lines
Method: as §1
(§4) Cytotoxicities of the nonfluorescent cancer cells were assessed with a PrestoBlue cell viability reagent (Thermo Fisher). Briefly, 2500 cells/well were seeded on 384-well plates; then, the next-day drugs were added. After 72 h of incubation, PrestoBlue was added in a 10% final concentration, and after an hour of additional incubation, plates were measured with a PerkinElmer EnSpire plate reader at 555 nm/585 nm excitation/emission wavelengths. Stem cells were seeded on 96-well plates at a density of 5000 cells/well, and the following day, drugs were added for 96 h of incubation; then, viability was assessed with 10% PrestoBlue diluted in PBS. […] IC50 values and standard deviation were calculated from average pIC50 values from at least 3 independent measurements.

MSCs = assay: Cytotoxicity, range over MSCs; format: cell-based; details: AD-MSC, BM-MSC, immortalized BM-MSC
Method: as §1, §4

AUC (HPLC-UV), single measurements 1-5 ([9]; 0 h): 898 and 911 and 926 and 921 and 877
AUC (HPLC-UV), average ([9]; 0 h, Cu-LA, Ag-LA 1% DMSO, Au-LA 30% DMSO): 907
AUC (HPLC-UV), average ([9]; 1 h): 922
AUC (HPLC-UV), single measurements 1-5 ([9]; 1 h): 923 and 921 and 920
AUC (HPLC-UV), average ([9]; 2 h): 923
AUC (HPLC-UV), single measurements 1-5 ([9]; 2 h): 922 and 921 and 923 and 928
AUC (HPLC-UV), average ([9]; 4 h): 924
AUC (HPLC-UV), single measurements 1-5 ([9]; 4 h): 921 and 925 and 927 and 920 and 928
AUC (HPLC-UV), average ([9]; 8 h): 923
AUC (HPLC-UV), single measurements 1-5 ([9]; 8 h): 922 and 924 and 923
AUC (HPLC-UV), average ([9]; 16 h): 922
AUC (HPLC-UV), single measurements 1-5 ([9]; 16 h): 921 and 922
AUC (HPLC-UV), average ([9]; 32 h): 925
AUC (HPLC-UV), single measurements 1-5 ([9]; 32 h): 925 and 926 and 924
AUC (HPLC-UV), average ([9]; 48 h): 921
AUC (HPLC-UV), single measurements 1-5 ([9]; 48 h): 917 and 922 and 920
Stability in serum-free culture medium ([9]; HPLC-UV, observed 48 h): stable
Structure (SMILES): Cc1c(C)n(Cc2ccccc2)[c](=[Ag][Cl])n1Cc1ccccc1 [Ag-LA, Chloro-(1,3-dibenzyl-4,5-dimethyl-imidazol-2-ylidene)silver]
IC50 [1]: 5.7 to 15.7 µM
IC50 (AD-MSC): 15.6 µM
IC50 (IGROV-1): 15 µM
IC50 (OVC-8): 17.4 µM
IC50 (OVC-3): 16.3 µM
More ROS compared to the medium (Mes-Sa [2]): ~50%
More ROS compared to the medium (MCF-7 [3]): ~30%
Intracellular ROS production compared to the medium (T-47D [4]): ROS was not elevated
IC50 (im. BM-MSC): 13.6 µM
IC50 [5]: 5.8 to 12 µM
IC50 (Mes-Sa [6]): 7.9 µM
IC50 (MCF-7 [7]): 10.9 µM
IC50 (T-47D [8]): 5.83 µM
IC50 (MDA-MB-231): 12 µM
IC50 (Mes-Sa B1): 20.5 µM
IC50 (OVC-5): 40.7 µM
Lower susceptibility of OVC-5 compared to the ovarian cancer lines (OVC-5; OVC-5 vs ovarian cancer lines): 2.5 fold
IC50 (Mes-Sa/Dx5): 12 µM
IC50 (BM-MSC): 15.7 µM
IC50 [10]: 10.5 to 17.4 µM

Structure (SMILES): CC(=O)OC[C@H]1O[C@@H]([S-])[C@H](OC(C)=O)[C@@H](OC(C)=O)[C@@H]1OC(C)=O.CCP(CC)CC.[Au+] [Auranofin, auranofin, reference compound]
IC50 (AD-MSC): 2.16 µM
IC50 (IGROV-1): 1.93 µM
IC50 (OVC-8): 2.27 µM
IC50 (OVC-3): 1.71 µM
IC50 (im. BM-MSC): 2.61 µM
IC50 (cancer lines): 1.2 to 7 µM
IC50 [5]: 1.2 to 2.8 µM
IC50 (Mes-Sa [6]): 2.21 µM
IC50 (MCF-7 [7]): 2.83 µM
IC50 (T-47D [8]): 2.31 µM
IC50 (MDA-MB-231): 1.15 µM
IC50 (Mes-Sa B1): 3.22 µM
IC50 (OVC-5): 6.96 µM
IC50 (OVC-5; listed as auranofin): 7 µM
IC50 (Mes-Sa/Dx5): 1.4 µM
IC50 (MSCs): 2.2 to 2.9 µM
IC50 (BM-MSC): 2.88 µM
IC50 [10]: 1.7 to 2.3 µM

Structure (SMILES): N.N.[Cl][Pt][Cl] [Cisplatin, cisplatin, reference compound]
IC50 [1]: 2 to 2.3 µM
IC50 (AD-MSC): 16.7 µM
IC50 (IGROV-1): 2.19 µM
IC50 (OVC-8): 6.34 µM
IC50 (OVC-3): 6.64 µM
IC50 (im. BM-MSC): 1.97 µM
IC50 [5]: 2.2 to 6 µM
IC50 (Mes-Sa [6]): 1.84 µM
IC50 (MCF-7 [7]): 2.71 µM
IC50 (T-47D [8]): 5.99 µM
IC50 (MDA-MB-231): 2.17 µM
IC50 (Mes-Sa B1): 2.09 µM
IC50 (OVC-5): 7 µM
IC50 (Mes-Sa/Dx5): 4.71 µM
IC50 (BM-MSC): 2.32 µM
